Measured values: ChEMBL document CHEMBL1201862, “PubChem BioAssay data set” (2004)
Active and inactive are the calls of the source.

Tests used:
[1] = ADAM10 inhibitors, peptide cleavage, dose response, biochemical, QFRET (AID 743254);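 also: ADAM10 enzyme with the DM2 quenched FRET peptide as substrate; EDANS fluorescence gain as the protease cuts the substrate; inhibitor potency against ADAM10 proteolytic activity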
[2] = biological target: T1, Disintegrin and metalloproteinase domain-containing protein 17 (Homo sapiens, UniProt P78536); experiment: ADAM17 protease inhibitors, dose response, counter-screen for ADAM10 exosite inhibitor project, biochemical, quenched FRET substrate (AID 743253)
T1 sequence (P78536 whole entry, the tested form may be a part): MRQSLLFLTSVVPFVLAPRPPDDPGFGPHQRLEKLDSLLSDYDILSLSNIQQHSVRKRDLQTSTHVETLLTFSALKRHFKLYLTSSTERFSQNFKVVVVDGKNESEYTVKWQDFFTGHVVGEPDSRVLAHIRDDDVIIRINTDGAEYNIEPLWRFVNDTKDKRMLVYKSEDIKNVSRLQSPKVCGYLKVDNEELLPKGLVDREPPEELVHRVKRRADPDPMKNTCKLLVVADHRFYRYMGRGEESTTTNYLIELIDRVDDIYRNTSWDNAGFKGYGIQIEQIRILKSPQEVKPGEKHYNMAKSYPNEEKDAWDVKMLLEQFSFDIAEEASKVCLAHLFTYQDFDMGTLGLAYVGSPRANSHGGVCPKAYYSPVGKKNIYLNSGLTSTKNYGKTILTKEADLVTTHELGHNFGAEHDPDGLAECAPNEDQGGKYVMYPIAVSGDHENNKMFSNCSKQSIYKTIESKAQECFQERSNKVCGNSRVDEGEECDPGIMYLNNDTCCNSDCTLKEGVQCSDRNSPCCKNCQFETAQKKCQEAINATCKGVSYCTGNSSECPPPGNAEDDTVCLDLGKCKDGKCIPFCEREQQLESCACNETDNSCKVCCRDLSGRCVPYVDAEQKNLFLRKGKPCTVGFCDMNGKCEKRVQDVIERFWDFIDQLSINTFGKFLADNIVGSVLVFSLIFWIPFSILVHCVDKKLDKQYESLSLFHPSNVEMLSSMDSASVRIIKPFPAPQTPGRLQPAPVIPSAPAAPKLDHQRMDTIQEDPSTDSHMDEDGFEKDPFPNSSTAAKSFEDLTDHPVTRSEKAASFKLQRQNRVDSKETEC

[3] = biological target: T2, Methionyl-tRNA synthetase, putative (Trypanosoma brucei brucei, UniProt Q38C91); format: functional, Trypanosoma brucei brucei strain 927/4 GUTat10.1
T2 sequence (Q38C91 whole entry): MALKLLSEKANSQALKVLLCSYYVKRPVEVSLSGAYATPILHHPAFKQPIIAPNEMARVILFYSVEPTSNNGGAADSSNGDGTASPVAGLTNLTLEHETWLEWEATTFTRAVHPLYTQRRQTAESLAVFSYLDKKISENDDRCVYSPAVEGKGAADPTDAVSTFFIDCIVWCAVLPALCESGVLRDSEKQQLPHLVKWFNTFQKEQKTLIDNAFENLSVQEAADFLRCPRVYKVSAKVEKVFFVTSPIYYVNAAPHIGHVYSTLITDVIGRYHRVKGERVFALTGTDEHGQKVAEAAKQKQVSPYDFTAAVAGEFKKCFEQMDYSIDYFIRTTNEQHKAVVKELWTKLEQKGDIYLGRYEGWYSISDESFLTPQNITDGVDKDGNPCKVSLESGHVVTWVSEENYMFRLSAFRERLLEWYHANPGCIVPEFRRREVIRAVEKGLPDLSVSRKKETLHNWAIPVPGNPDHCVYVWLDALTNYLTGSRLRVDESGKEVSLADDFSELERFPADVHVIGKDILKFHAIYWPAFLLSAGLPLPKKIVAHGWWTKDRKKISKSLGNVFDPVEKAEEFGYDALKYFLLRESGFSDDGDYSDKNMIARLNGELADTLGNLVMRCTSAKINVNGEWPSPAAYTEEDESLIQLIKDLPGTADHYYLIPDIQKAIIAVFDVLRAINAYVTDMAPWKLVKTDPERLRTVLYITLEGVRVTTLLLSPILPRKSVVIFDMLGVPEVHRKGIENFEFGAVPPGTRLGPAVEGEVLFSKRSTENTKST

[4] = Counterscreen for inhibitors of Trypanosoma brucei methionyl tRNA synthetase (MetRS): Luminescence-based cell-based high throughput dose response assay to identify compounds that are cytotoxic to Jurkat human T lymphocyte cells.; format: functional
[5] = biological target: T2, Methionyl-tRNA synthetase, putative; format: functional, Trypanosoma brucei brucei strain 927/4 GUTat10.1; remark: listed apart in the source
[6] = HEK293T cytotoxicity, dose response, cytotoxicity control for miR-122 modulator project, cell-based, inhibitor set, cherry-pick, set 2 (AID 720697); format: functional
[7] = Luminescence Cell-Based Dose Response HTS to Identify Activators of Luciferase Translation or Activity in H4 […] Cells. [Related pubchem assays: 1829 (Project Summary), 1814 (Primary HTS)]; format: functional
[8] = test system: H4; experiment: Luminescence Cell-Based Dose Response HTS to Identify Activators of 5'UTR Stem-Loop Driven Prion Protein mRNA Translation in H4 Neuroglioblastoma Cells. [Related pubchem assays: 1829 (Project Summary), 1814 (Primary HTS)]; format: functional; details: Homo sapiens
[9] = biological target: T3, Replicative DNA helicase DnaB (Mycobacterium tuberculosis, UniProt P9WMR3); experiment: DnaB intein splicing inhibitors, dose response, biochemical, cell-free fluorescence (AID 449749); format: functional
T3 sequence (P9WMR3 whole entry): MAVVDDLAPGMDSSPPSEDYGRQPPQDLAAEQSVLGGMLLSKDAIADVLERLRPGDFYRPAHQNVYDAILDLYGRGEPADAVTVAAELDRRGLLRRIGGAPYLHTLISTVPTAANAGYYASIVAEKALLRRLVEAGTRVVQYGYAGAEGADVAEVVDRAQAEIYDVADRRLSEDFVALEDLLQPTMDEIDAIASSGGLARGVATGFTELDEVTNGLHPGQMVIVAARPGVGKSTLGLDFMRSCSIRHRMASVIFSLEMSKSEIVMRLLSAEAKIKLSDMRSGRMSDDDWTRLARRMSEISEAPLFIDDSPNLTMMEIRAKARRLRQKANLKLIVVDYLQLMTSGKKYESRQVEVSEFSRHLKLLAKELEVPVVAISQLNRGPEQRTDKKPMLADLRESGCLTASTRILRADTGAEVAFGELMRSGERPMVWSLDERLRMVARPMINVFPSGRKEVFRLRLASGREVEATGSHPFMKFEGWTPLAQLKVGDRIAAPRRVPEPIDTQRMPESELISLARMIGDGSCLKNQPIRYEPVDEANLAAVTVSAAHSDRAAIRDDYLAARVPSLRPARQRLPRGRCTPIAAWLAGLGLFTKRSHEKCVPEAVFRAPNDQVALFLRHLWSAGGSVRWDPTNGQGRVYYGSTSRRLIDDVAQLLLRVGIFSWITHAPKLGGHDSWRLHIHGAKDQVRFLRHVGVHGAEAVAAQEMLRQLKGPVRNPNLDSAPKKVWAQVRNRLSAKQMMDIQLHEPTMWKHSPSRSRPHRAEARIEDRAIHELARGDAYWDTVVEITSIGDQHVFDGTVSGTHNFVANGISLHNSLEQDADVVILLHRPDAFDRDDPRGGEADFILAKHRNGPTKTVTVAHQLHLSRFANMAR

[10] = biological target: T4, Protein RecA (Mycobacterium tuberculosis, UniProt P9WHJ3); experiment: Fluorescence Cell-Free Homogeneous Dose Retest to Identify Inhibitors of RecA-Intein Splicing Activity. [Related pubchem assays (depositor defined):AID2097, AID2223, AID489010, AID492950]; format: functional
T4 sequence (P9WHJ3 whole entry): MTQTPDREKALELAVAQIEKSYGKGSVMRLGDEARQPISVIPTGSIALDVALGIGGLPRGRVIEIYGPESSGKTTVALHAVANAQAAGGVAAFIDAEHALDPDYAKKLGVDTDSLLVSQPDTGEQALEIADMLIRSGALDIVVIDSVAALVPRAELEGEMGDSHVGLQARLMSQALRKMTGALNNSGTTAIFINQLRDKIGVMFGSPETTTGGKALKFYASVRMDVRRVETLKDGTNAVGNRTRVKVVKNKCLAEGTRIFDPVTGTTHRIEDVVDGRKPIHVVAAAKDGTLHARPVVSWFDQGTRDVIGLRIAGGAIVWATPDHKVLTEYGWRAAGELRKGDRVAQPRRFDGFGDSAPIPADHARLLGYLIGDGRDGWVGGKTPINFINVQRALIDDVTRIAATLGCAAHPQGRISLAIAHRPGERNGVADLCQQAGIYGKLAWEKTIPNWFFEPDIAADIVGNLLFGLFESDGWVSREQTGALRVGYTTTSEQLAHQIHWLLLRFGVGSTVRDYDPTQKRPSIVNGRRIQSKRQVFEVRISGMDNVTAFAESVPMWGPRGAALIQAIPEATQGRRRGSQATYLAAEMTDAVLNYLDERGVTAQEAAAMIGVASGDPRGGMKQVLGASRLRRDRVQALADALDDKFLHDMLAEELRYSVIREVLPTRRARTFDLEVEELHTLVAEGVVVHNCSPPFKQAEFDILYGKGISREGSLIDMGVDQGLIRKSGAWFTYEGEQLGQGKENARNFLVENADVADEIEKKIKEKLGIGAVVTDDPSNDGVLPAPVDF

[11] = biological target: Paired box protein Pax-8 (Homo sapiens, UniProt Q06710); experiment: inhibitors of PAX8-driven TPO luciferase reporter, dose response, RMG-I cells, cherry-pick (AID 687027); format: functional, cell-based;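 also: luciferase reporter driven by Pax8 target thyroperoxidase promoter measured by SteadyGlo luminescence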
Chain of Paired box protein Pax-8 (Q06710 whole entry): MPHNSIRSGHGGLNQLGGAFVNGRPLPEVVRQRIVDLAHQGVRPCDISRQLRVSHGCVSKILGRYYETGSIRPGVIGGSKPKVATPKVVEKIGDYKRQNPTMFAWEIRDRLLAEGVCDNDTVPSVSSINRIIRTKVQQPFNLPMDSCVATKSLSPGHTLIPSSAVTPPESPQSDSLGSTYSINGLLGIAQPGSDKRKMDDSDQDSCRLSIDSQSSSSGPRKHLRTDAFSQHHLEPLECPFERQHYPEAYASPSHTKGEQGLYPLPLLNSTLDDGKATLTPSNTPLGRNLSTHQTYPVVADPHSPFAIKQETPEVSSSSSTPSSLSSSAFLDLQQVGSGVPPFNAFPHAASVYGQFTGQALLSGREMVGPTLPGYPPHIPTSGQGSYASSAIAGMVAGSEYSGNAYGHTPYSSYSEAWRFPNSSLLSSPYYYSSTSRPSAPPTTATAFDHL

[12] = non-specific cell cytotoxicity, dose response, cytotoxicity control for PAX8 inhibitor project, plate reader, dry powder samples (AID 743021); format: functional, cell-based
[13] = test system: H9c2; experiment: cells; format: functional, cell-based; details: Rattus norvegicus, H9c2, Myocardium;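 also: confirmatory concentration-response retest of ultra-high-throughput screening hits for modulation of myocardial damage; cell death induced by hydrogen peroxide oxidative stress; compound pretreatment for 60 min then peroxide exposure for 2 h; potency is for protecting the cells against peroxide damage rather than for killing them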
[14] = biological target: T5, Long-chain-fatty-acid--AMP ligase FadD28 (Mycobacterium tuberculosis, UniProt P9WQ59); experiment: Fluorescence polarization aasay to screen for inhibitors that compete for the binding of FadD28 to a bisubstrate Measured in Biochemical System Using Plate Reader - 2147-01_Inhibitor_Dose_CherryPick_Activity.; format: functional, Mycobacterium tuberculosis H37Rv
T5 sequence (P9WQ59 whole entry): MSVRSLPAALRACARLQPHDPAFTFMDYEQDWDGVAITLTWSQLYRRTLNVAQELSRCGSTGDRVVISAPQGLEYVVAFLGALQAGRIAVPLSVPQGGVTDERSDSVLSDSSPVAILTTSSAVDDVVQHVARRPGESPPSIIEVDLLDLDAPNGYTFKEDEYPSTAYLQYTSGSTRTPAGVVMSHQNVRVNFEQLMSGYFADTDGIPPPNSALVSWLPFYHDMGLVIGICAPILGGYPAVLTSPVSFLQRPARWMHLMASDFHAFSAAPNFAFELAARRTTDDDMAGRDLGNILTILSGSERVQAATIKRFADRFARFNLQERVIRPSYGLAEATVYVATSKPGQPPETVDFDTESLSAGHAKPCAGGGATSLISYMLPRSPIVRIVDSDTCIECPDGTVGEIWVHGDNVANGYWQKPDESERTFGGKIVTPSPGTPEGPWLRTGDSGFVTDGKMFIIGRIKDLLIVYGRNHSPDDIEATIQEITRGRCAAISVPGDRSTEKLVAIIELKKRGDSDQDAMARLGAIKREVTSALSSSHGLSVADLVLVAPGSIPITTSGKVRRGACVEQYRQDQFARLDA

[15] = biological target: T1, Disintegrin and metalloproteinase domain-containing protein 17; experiment: exosite inhibitors of ADAM17, dose response, biochemical (AID 743260)
[16] = ADAM10 protease inhibitors, dose response, selectivity assay for ADAM17 exosite inhibitor project, biochemical, FRET peptide substrate, recombinant human ADAM10 (AID 743259);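 also: ADAM10 enzyme cleaving a FRET peptide substrate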
[17] = cells; format: functional, cell-based
[18] = biological target: T6, Nuclear receptor subfamily 0 group B member 1 (Homo sapiens, UniProt P51843); format: functional, cell-based;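 also: HEK293T cells transfected with SF-1 and DAX-1 plus StAR promoter luciferase reporter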
T6 sequence (P51843 whole entry): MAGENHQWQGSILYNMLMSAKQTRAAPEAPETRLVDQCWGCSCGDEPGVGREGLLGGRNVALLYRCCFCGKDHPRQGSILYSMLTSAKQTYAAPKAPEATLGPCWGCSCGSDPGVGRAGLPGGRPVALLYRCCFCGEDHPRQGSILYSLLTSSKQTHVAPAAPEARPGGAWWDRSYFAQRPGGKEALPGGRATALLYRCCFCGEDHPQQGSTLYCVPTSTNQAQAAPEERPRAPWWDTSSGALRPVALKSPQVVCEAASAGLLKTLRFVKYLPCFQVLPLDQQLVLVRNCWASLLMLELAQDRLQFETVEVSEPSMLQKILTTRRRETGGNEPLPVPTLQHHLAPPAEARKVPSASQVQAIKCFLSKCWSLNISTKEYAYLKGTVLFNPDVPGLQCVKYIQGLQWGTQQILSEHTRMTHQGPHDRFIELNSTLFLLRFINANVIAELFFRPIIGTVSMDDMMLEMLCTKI

[19] = NIH:OVCAR-3 ovarian cancer cell cytotoxicity, dose response, PAX8 inhibitor project, plate reader, dry powder samples (AID 743044); format: functional, cell-based
[20] = IGROV1 ovarian cancer cell cytotoxicity, dose response, PAX8 inhibitor project, plate reader, dry powder samples (AID 743043); format: functional, cell-based; details: IGROV-1
[21] = cytotoxicity in OVCAR8 ovarian cancer cells, dose response, PAX8 project, cell-based, plate reader, dry powder samples (AID 743197); format: functional; details: OVCAR-8

COC(=O)C1=C(c2ccccc2OCc2ccccc2)C[C@@H]2CC[C@H]1N2C(=O)NCc1ccc(C(C)(C)C)cc1
IC50 [1]: > 69.5 µM (inactive) | IC50 [2]: > 69.5 µM (inactive)

O=C(CSc1ccc(-c2nc3ccccc3[nH]2)cn1)Nc1ccc(S(=O)(=O)NC2CC2)cc1
IC50 [3]: 4.53 µM (active) | IC50 [4]: 83.3 µM (inactive) | IC50 [5]: 3.58 µM (active)

Cc1ccc(-n2c(S)nnc2Cc2ccccc2)cc1
AC50 [6]: 3.74 µM (active)

Cc1ccc(-n2nc(C)c(NC(=O)CCl)c2C)cc1C
EC50 [7]: 115 µM (active) | EC50 [8]: > 120 µM (not active) | AC50 [9]: > 380 µM (inactive) | EC50 [10]: 16 µM (active) | AC50 [11]: 6.77 µM (active) | AC50 [12]: 39.5 µM (active)

O=C(NO)c1ccc(C(=O)N(C2CCCCC2)C2CCCCC2)cc1
IC50 [13]: > 79 µM (inactive) | IC50 [1]: 14.6 µM (inactive) | IC50 [2]: 34.9 µM (inactive)

O=C(NN1C(=O)/C(=C/c2ccc(O)cc2)SC1=S)c1cccc(O)c1
IC50 [3]: 30.9 µM (inactive) | IC50 [4]: 83.3 µM (inactive) | IC50 [5]: 44.6 µM (inactive) | AC50 [14]: 62 µM (active)

COc1ccccc1/C=C/C1C(C(=O)OCC(C)C)=C(C)N=C2SCCC(=O)N21 (centres undefined)
IC50 [15]: > 69.5 µM (inactive) | IC50 [16]: > 69.5 µM (inactive)

Clc1ccc(OCc2cc(-c3ccccc3)no2)c(Cl)c1
IC50 [17]: > 67.5 µM (inactive) | IC50 [18]: > 67.5 µM (inactive)

FC(F)(F)c1cc(CCN2C(=S)NC[C@@H]2Cc2ccccc2)cc(C(F)(F)F)c1
IC50 [2]: > 69.5 µM (inactive)

FC(F)(F)c1cc(CCN2C(S)=NC[C@@H]2Cc2ccccc2)cc(C(F)(F)F)c1
IC50 [1]: 11.8 µM (inactive)

Cc1cc(Cl)c2oc(C(=O)N(C)C3CCOC3)c(C)c2c1 (centres undefined)
IC50 [17]: > 67.5 µM (inactive) | IC50 [18]: > 67.5 µM (inactive)

COC(=O)c1sccc1NC(=O)Nc1ccc(C)cc1
IC50 [17]: > 67.6 µM (inactive) | IC50 [18]: > 67.6 µM (inactive)

O=C1NC(=O)C(Cc2ccc(Cl)cc2)(c2ccccc2)N1 (centres undefined)
IC50 [15]: 3.67 µM (active) | IC50 [16]: 29.4 µM (inactive)

O=C(Nc1ccc(F)cc1)N1C[C@@H]2N[C@H](C1)[C@@H]2c1ccc(-c2ccccc2F)cc1
AC50 [11]: 13.8 µM (active) | AC50 [19]: 32 µM (active) | AC50 [20]: 42.5 µM (active) | AC50 [12]: 55.6 µM (active) | AC50 [21]: > 70 µM (inactive)

COCC(=O)NC[C@@H]1[C@H](c2ccc(C3=CCCC3)cc2)[C@H](CO)N1C(=O)C1CC1
AC50 [6]: 0.499 µM (active)

Cc1ccc(OCc2nnc(SC/C=C/c3ccccc3)n2Cc2ccco2)cc1
IC50 [15]: > 69.6 µM (inactive) | IC50 [16]: 16 µM (inactive)
